Data from ChEMBL document CHEMBL4831536, “Neuroregenerative Potential of Prenyl- and Pyranochalcones: A Structure-Activity Study” (J Nat Prod, 2021).
Calls of active or inactive are those of the source. The calls are words filed in the database; no cut-off is given here.

What was measured:
MEF [1] = test: Neuro-regenerative activity in NMRI mouse MEF cells transfected with human DCX promoter-driven firefly luciferase reporter assessed as induction of neuronal differentiation at 10 uM incubated for 3 days by luciferase reporter gene based luminescence analysis; assay type: functional, cell-based; settings: time 3.0 day
MEF [2] = test: Cytotoxicity against NMRI mouse MEF cells assessed as effect on cell proliferation by measuring effect on renilla activity at 10 uM incubated for 3 days by luminescence based analysis; settings: 72 h, time 3 day
MEF [3] = test: Neuro-regenerative activity in NMRI mouse MEF cells transfected with human DCX promoter-driven firefly luciferase reporter assessed as induction of neuronal differentiation at 10 uM incubated for 3 days by luciferase reporter gene based luminescence analysis relative to control; assay type: functional; settings: time 3 day

| Structure (SMILES) | Activity (MEF [1]) | Activity (MEF [2]) | Ratio (MEF [3]) |
| --- | --- | --- | --- |
| COc1ccc(/C=C/C(=O)c2c(OC)cc3c(c2O)C=CC(C)(C)O3)cc1 | Active | – | – |
| CC1(C)C=Cc2c(cc(O)c3c2OC(c2ccc(O)cc2)CC3=O)O1 (stereo not drawn) | Active | – | – |
| COc1cc2c(c(O)c1C(=O)/C=C/c1ccc3c(c1)OCO3)C=CC(C)(C)O2 | Active | – | – |
| COc1cc2c(c(O)c1C(=O)/C=C/c1ccc(O)cc1)C=CC(C)(CCC=C(C)C)O2 (stereo not drawn) | inactive | – | – |
| CC1(C)C=Cc2c(cc3c(c2O)C(=O)CC(c2ccc(O)cc2)O3)O1 (stereo not drawn) | Active | – | – |
| COc1cc2c(c(O)c1C(=O)/C=C/c1ccc(O)c(O)c1)C=CC(C)(C)O2 | Active | Non-Toxic | – |
| COc1cc2c(c3c1C(=O)CC(c1ccc(O)cc1)O3)C=CC(C)(C)O2 (stereo not drawn) | Active | – | – |
| COc1cc2c(c(O)c1C(=O)/C=C/c1ccc(O)cc1)CCC(C)(C)O2 | Active | – | – |
| COc1cc(O)c(CC=C(C)C)c(O)c1C(=O)/C=C/c1ccc(O)cc1 [XANTHOHUMOL] | – | Toxic | 5.55 |
| COc1cc2c(c(O)c1C(=O)/C=C/c1ccc(O)cc1)C=CC(C)(C)O2 [XANTHOHUMOL C] | – | Non-Toxic | 1.56 |
